Reference: US11685719B2, “Pyridinone MK2 inhibitors and uses thereof” (Xinthera, Inc., priority 2021, dated 2023)

Assays:
p38a/MK2 = p38a/MK2 (Homo sapiens (Human), UniProt P49137+Q16539); assay: biochemical; settings: 10-point 1:3 dilution, top dose 1 μM; 10 μM ATP, 2 h incubation; read-out: p38a/MK2 (1 μM) Enzyme pIC50 (converted)
Protocol: (§1) Expression vectors of the recombinant MK2 and PRAK kinases were constructed by cloning of the codon optimized gene sequences of MK2 (Uniprot ID P49137, amino acid fragment F46-H400), or PRAK (Uniprot ID Q81W41, amino acid fragment M1-Q471) into pGEX-4T1 (GE) for over expression of these kinases with N-terminal GST-tag. Protein expression was carried out in E. coli BL21 by growing the hosts in TB medium, induction of protein expression with 0.5 mM IPTG at approximate 0.8 OD600, and incubation of the cultures at 18° C. for 14-20 hours afterwards. The harvested cells were resuspended in […] of Lysis buffer (50 mM Tris-HCl, pH 8.0, 500 mM NaCl, 1 mM DTT, 5% glycerol, and 1 mM PMSF) per gram of wet cell mass and homogenized at 4° C. in a microfluidizer (ATS, Suzhou, China) at 14,000 psi pressure, 3 passes. The cell lysates were clarified by centrifugation and the supernatants containing the GST-fusion proteins were purified by affinity chromatography using GSH-Sepharose (GE) gravity flow columns pre-equilibrated in Buffer A (50 mM Tris-HCl, pH 8.0, 500 mM NaCl, 1 mM DTT, and 5% glycerol). After thorough washing of the columns with Buffer A, the bound GST-proteins were eluted by Buffer B (50 mM Tris, pH 8.0, 500 mM NaCl, 1 mM DTT, 5% glycerol, 10 mM glutathione), followed by size-exclusion purification on Superdex 200 column equilibrated in Buffer A. The purified proteins were concentrated to approximately 1 mg/ml and stored at −80° C.
(§2) This study evaluates the inhibitory potency of invention compound on p38/MK2 pathway vs p38/PRAK pathway. More specially the compound concentration (IC50) was determined that inhibited half of the maximal activation of MK2 or PRAK by p38. MK2 activation study was set up without or with a serial of 10-point 1:3 dilution of invention compound at top dose of 1 or 10 μM, and PRAK activation study was set up without or with a serial of 10-point 1:3 dilution of invention compound at top dose of 300 μM. The MIK2 and PRAK activity were determined by the phosphorylation level of HSP27 peptide conjugated with FITC.

p38a/PRAK = p38a/PRAK (Homo sapiens (Human), UniProt Q16539); assay: biochemical; settings: 10-point 1:3 dilution, top dose 300 μM; 10 μM ATP, 2 h incubation; read-out: p38a/PRAK Enzyme pIC50 (converted)
Protocol: as §1, §2

p38a/MK2, sequence (Q16539 whole entry, the tested form may be a part): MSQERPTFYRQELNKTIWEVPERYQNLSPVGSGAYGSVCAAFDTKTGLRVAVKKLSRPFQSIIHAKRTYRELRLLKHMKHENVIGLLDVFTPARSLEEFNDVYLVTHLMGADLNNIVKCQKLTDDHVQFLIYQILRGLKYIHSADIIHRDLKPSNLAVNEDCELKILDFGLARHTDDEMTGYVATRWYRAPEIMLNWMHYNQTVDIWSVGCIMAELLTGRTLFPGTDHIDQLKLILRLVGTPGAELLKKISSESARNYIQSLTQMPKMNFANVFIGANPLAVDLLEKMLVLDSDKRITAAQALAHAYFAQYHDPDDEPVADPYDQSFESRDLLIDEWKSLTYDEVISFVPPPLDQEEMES
p38a/MK2, sequence (P49137 46-400): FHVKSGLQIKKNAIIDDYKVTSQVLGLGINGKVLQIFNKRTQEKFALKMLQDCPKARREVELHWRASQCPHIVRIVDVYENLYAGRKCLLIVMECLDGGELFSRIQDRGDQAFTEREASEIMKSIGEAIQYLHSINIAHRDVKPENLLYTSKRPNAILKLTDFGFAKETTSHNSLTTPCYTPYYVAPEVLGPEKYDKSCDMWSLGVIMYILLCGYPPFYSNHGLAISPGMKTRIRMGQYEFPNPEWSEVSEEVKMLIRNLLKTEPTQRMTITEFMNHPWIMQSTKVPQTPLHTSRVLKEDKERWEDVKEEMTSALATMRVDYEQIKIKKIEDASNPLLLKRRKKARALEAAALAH
p38a/PRAK, sequence (Q16539 whole entry): as the sequence (Q16539 whole entry, the tested form may be a part) above

| IC50 (p38a/MK2) [nM] | IC50 (p38a/PRAK) [nM] | SMILES |
| --- | --- | --- |
| 10 | 2510 | Cc1cnc(-n2ccc(C)c(C(C)(C)O)c2=O)cc1-n1c(C)cc(OCc2ncc(F)cc2F)c(Cl)c1=O (single isomer, unassigned) [Example 15A, rel-3-chloro-4-[(3,5-difluoropyridin-2-yl)methoxy]-2′-[3-(2-hydroxypropan-2-yl)-4-methyl-2-oxopyridin-1-yl]-5′,6-dimethyl-[1,4′-bipyridin]-2-one] |
| > 1000 | > 316000 | Cc1cnc(-n2ccc(C)c(C(C)(C)O)c2=O)cc1-n1c(C)cc(OCc2ncc(F)cc2F)c(Cl)c1=O (single isomer, unassigned) [Example 15B, rel-3-chloro-4-[(3,5-difluoropyridin-2-yl)methoxy]-2′-[3-(2-hydroxypropan-2-yl)-4-methyl-2-oxopyridin-1-yl]-5′,6-dimethyl-[1,4′-bipyridin]-2-one] |
| 200 | 7940 | Cc1ncc(-n2cccc(C(C)(C)O)c2=O)cc1-n1c(C)cc(OCc2ncc(F)cc2F)c(Cl)c1=O (single isomer, unassigned) [Example 16A, rel-5′-{3-chloro-4-[(3,5-difluoropyridin-2-yl)methoxy]-6-methyl-2-oxopyridin-1-yl}-3-(2-hydroxypropan-2-yl)-6′-methyl-[1,3′-bipyridin]-2-one] |
| > 1000 | > 316000 | Cc1ncc(-n2cccc(C(C)(C)O)c2=O)cc1-n1c(C)cc(OCc2ncc(F)cc2F)c(Cl)c1=O (single isomer, unassigned) [Example 16B, rel-5′-{3-chloro-4-[(3,5-difluoropyridin-2-yl)methoxy]-6-methyl-2-oxopyridin-1-yl}-3-(2-hydroxypropan-2-yl)-6′-methyl-[1,3′-bipyridin]-2-one] |
| 1.58 | 6310 | Cc1cnc(-n2cccc(C(C)C)c2=O)cc1-n1c(C)cc(OCc2ncc(F)cc2F)c(Cl)c1=O (single isomer, unassigned) [Example 17A, rel-3-chloro-4-[(3,5-difluoropyridin-2-yl)methoxy]-2′-(3-isopropyl-2-oxopyridin-1-yl)-5′,6-dimethyl-[1,4′-bipyridin]-2-one] |
| > 1000 | > 316000 | Cc1cnc(-n2cccc(C(C)C)c2=O)cc1-n1c(C)cc(OCc2ncc(F)cc2F)c(Cl)c1=O (single isomer, unassigned) [Example 17B, rel-3-chloro-4-[(3,5-difluoropyridin-2-yl)methoxy]-2′-(3-isopropyl-2-oxopyridin-1-yl)-5′,6-dimethyl-[1,4′-bipyridin]-2-one] |
| 1 | 1580 | [2H]C([2H])(Oc1cc(C)n(-c2cc(-n3ccnc(C(C)(C)O)c3=O)ncc2C)c(=O)c1Cl)c1ncc(F)cc1F (single isomer, unassigned) [Example 19A, rel-3-chloro-4-((3,5-difluoropyridin-2-yl)methoxy-d2)-2′-(3-(2-hydroxypropan-2-yl)-2-oxopyrazin-1(2H)-yl)-5′,6-dimethyl-2H-[1,4′-bipyridin]-2-one] |
| 794 | > 316000 | [2H]C([2H])(Oc1cc(C)n(-c2cc(-n3ccnc(C(C)(C)O)c3=O)ncc2C)c(=O)c1Cl)c1ncc(F)cc1F (single isomer, unassigned) [Example 19B, rel-3-chloro-4-((3,5-difluoropyridin-2-yl)methoxy-d2)-2′-(3-(2-hydroxypropan-2-yl)-2-oxopyrazin-1(2H)-yl)-5′,6-dimethyl-2H-[1,4′-bipyridin]-2-one] |
| 1 | 3160 | [2H]C([2H])(Oc1cc(C)n(-c2cc(-n3ccnc(C(C)(C)O)c3=O)ncc2C)c(=O)c1Cl)c1ncc(Cl)cc1F (single isomer, unassigned) [Example 20A, rel-3-chloro-4-((5-chloro-3-fluoropyridin-2-yl)methoxy-d2)-2′-(3-(2-hydroxypropan-2-yl)-2-oxopyrazin-1(2H)-yl)-5′,6-dimethyl-2H-[1,4′-bipyridin]-2-one] |
| 316 | > 316000 | [2H]C([2H])(Oc1cc(C)n(-c2cc(-n3ccnc(C(C)(C)O)c3=O)ncc2C)c(=O)c1Cl)c1ncc(Cl)cc1F (single isomer, unassigned) [Example 20B, rel-3-chloro-4-((5-chloro-3-fluoropyridin-2-yl)methoxy-d2)-2′-(3-(2-hydroxypropan-2-yl)-2-oxopyrazin-1(2H)-yl)-5′,6-dimethyl-2H-[1,4′-bipyridin]-2-one] |
| 1.26 | 5010 | [2H]C([2H])(Oc1cc(C)n(-c2cc(-n3cccc(C(C)(C)O)c3=O)ncc2C)c(=O)c1Cl)c1ncc(Cl)cc1F (single isomer, unassigned) [Example 21A, rel-3-chloro-4-[(5-chloro-3-fluoropyridin-2-yl)(2H2)methoxy]-2′-[3-(2-hydroxypropan-2-yl)-2-oxopyridin-1-yl]-5′,6-dimethyl-[1,4′-bipyridin]-2-one] |
| > 1000 | > 316000 | [2H]C([2H])(Oc1cc(C)n(-c2cc(-n3cccc(C(C)(C)O)c3=O)ncc2C)c(=O)c1Cl)c1ncc(Cl)cc1F (single isomer, unassigned) [Example 21B, rel-3-chloro-4-[(5-chloro-3-fluoropyridin-2-yl)(2H2)methoxy]-2′-[3-(2-hydroxypropan-2-yl)-2-oxopyridin-1-yl]-5′,6-dimethyl-[1,4′-bipyridin]-2-one] |
| 2 | 3980 | [2H]C([2H])(Oc1cc(C)n(-c2cc(-n3ccnc(C(C)(C)O)c3=O)ncc2C)c(=O)c1Cl)c1ncc(F)cc1Cl (single isomer, unassigned) [Example 22A, rel-3-chloro-4-((3-chloro-5-fluoropyridin-2-yl)methoxy-d2)-2′-(3-(2-hydroxypropan-2-yl)-2-oxopyrazin-1(2H)-yl)-5′,6-dimethyl-2H-[1,4′-bipyridin]-2-one] |
| > 100 | > 316000 | [2H]C([2H])(Oc1cc(C)n(-c2cc(-n3ccnc(C(C)(C)O)c3=O)ncc2C)c(=O)c1Cl)c1ncc(F)cc1Cl (single isomer, unassigned) [Example 22B, rel-3-chloro-4-((3-chloro-5-fluoropyridin-2-yl)methoxy-d2)-2′-(3-(2-hydroxypropan-2-yl)-2-oxopyrazin-1(2H)-yl)-5′,6-dimethyl-2H-[1,4′-bipyridin]-2-one] |
| 2.51 | 6310 | [2H]C([2H])(Oc1cc(C)n(-c2cc(-n3cccc(C(C)(C)O)c3=O)ncc2C)c(=O)c1Cl)c1ncc(F)cc1Cl (single isomer, unassigned) [Example 23A, rel-4′-{3-chloro-4-[(3-chloro-5-fluoropyridin-2-yl)(2H2)methoxy]-6-methyl-2-oxopyridin-1-yl}-3-(2-hydroxypropan-2-yl)-5′-methyl-[1,2′-bipyridin]-2-one] |
| > 100 | > 316000 | [2H]C([2H])(Oc1cc(C)n(-c2cc(-n3cccc(C(C)(C)O)c3=O)ncc2C)c(=O)c1Cl)c1ncc(F)cc1Cl (single isomer, unassigned) [Example 23B, rel-4′-{3-chloro-4-[(3-chloro-5-fluoropyridin-2-yl)(2H2)methoxy]-6-methyl-2-oxopyridin-1-yl}-3-(2-hydroxypropan-2-yl)-5′-methyl-[1,2′-bipyridin]-2-one] |
| > 1000 | > 316000 | Cc1cnc(-n2ccnc(C(C)(C)O)c2=O)cc1-n1c(C)cc(OCc2ncc(F)cc2Cl)c(Cl)c1=O (single isomer, unassigned) [Example 24A, rel-3-chloro-4-[(3-chloro-5-fluoropyridin-2-yl)methoxy]-2′-[3-(2-hydroxypropan-2-yl)-2-oxopyrazin-1-yl]-5′,6-dimethyl-[1,4′-bipyridin]-2-one] |

| SMILES | IC50 (p38a/MK2) [nM] | IC50 (p38a/PRAK) [nM] |
| --- | --- | --- |
| [2H]C([2H])(Oc1cc(C)n(-c2cc(-n3cccc(C(C)(C)O)c3=O)ncc2C)c(=O)c1Cl)c1ncc(F)cc1F (single isomer, unassigned) [Example 18A, rel-3″-chloro-4″-((3,5-difluoropyridin-2-yl)methoxy-d2)-3-(2-hydroxypropan-2-yl)-5′,6″-dimethyl-2H,2″H-[1,2′:4′,1″-terpyridine]-2,2″-dione] | 1.58 | 3160 |
| [2H]C([2H])(Oc1cc(C)n(-c2cc(-n3cccc(C(C)(C)O)c3=O)ncc2C)c(=O)c1Cl)c1ncc(F)cc1F (single isomer, unassigned) [Example 18B, rel-3″-chloro-4″-((3,5-difluoropyridin-2-yl)methoxy-d2)-3-(2-hydroxypropan-2-yl)-5′,6″-dimethyl-2H,2″H-[1,2′:4′,1″-terpyridine]-2,2″-dione] | > 100 | > 316000 |
